Key:
rNsp5-L50F/E166V = format: cell-based, SARS-CoV-2; details: read-out: rNsp5-L50F/E166V EC50
rNsp5-L50F/E166A/L167F = format: cell-based, SARS-CoV-2; details: read-out: rNsp5-L50F/E166A/L167F EC50

CC(C)(C)[C@H](NC(=O)C(F)(F)F)C(=O)N1C[C@H]2[C@@H]([C@H]1C(=O)N[C@H](C#N)C[C@@H]1CCNC1=O)C2(C)C [Nirmatrelvir, nirmatrelvir]
EC50 (rNsp5-L50F/E166V): > 1 µM
EC50 (rNsp5-L50F/E166A/L167F): 0.63 µM

From article PMC11825904 (Nature Communications, 2025)
